Measured values reported in the NIST ThermoML archive (doi:10.1021/acs.jced.5b00197).

Assay: refractive index (other wavelength) (dimensionless); xn = mol fraction of the nth substance listed
Conditions: 94.64 kPa, Liquid, Standard Abbe refractometry

CC(=O)O [acetic acid] + Cc1ccccc1
refractive index
Conditions	Wavelength=404.7 nm	Wavelength=435.8 nm	Wavelength=486.1 nm	Wavelength=546.1 nm	Wavelength=587.6 nm	Wavelength=632.8 nm	Wavelength=644 nm	Wavelength=706.5 nm
293.15 K, x1 = 0.146	1.51185	1.50406	1.49519	1.48808	1.4846	1.48156	1.48087	1.47771
293.15 K, x1 = 0.277	1.49627	1.48902	1.48081	1.47416	1.47093	1.4681	1.46744	1.46997
293.15 K, x1 = 0.397	1.48254	1.47576	1.4681	1.46191	1.45889	1.45622	1.4556	1.4528
293.15 K, x1 = 0.506	1.46794	1.46165	1.45457	1.44883	1.44603	1.44355	1.44297	1.44033
293.15 K, x1 = 0.605	1.45403	1.44826	1.44171	1.43642	1.43382	1.43151	1.43097	1.42851
293.15 K, x1 = 0.697	1.43966	1.43437	1.4285	1.42367	1.42129	1.41917	1.41867	1.41635
293.15 K, x1 = 0.782	1.42556	1.42081	1.41549	1.41115	1.40899	1.40703	1.40657	1.40444
293.15 K, x1 = 0.859	1.41172	1.40749	1.40275	1.39886	1.39688	1.3951	1.39469	1.39271
293.15 K, x1 = 0.897	1.40081	1.397	1.39273	1.38919	1.38738	1.38572	1.38534	1.38353
293.15 K, x1 = 0.932	1.39511	1.39153	1.3875	1.38415	1.38242	1.38084	1.38047	1.37874
293.15 K, x1 = 0.967	1.38917	1.38582	1.38206	1.37892	1.37727	1.37577	1.37542	1.37375
293.15 K, x1 = 1	1.38345	1.38034	1.37681	1.37386	1.3723	1.37087	1.37055	1.36896
298.15 K, x1 = 0.146	1.50896	1.50121	1.49239	1.48532	–	–	–	–
298.15 K, x1 = 0.277	1.4934	1.48619	1.47801	1.47142	–	–	–	–
298.15 K, x1 = 0.397	1.47979	1.47305	1.46545	1.45928	–	–	–	–
298.15 K, x1 = 0.506	1.46521	1.45896	1.45191	1.44622	–	–	–	–
298.15 K, x1 = 0.605	1.45129	1.44555	1.43909	1.43383	–	–	–	–
298.15 K, x1 = 0.697	1.43707	1.43182	1.42596	1.42117	–	–	–	–
298.15 K, x1 = 0.782	1.42305	1.41834	1.41304	1.40874	–	–	–	–
298.15 K, x1 = 0.859	1.41005	1.40512	1.40043	1.39655	–	–	–	–
298.15 K, x1 = 0.897	1.39862	1.39482	1.3906	1.38706	–	–	–	–
298.15 K, x1 = 0.932	1.39296	1.38941	1.3854	1.38208	–	–	–	–
298.15 K, x1 = 0.967	1.3871	1.38379	1.38002	1.37691	–	–	–	–
298.15 K, x1 = 1	1.38126	1.37816	1.37466	1.37174	–	–	–	–
